Test results reported in patent publication US12227517B2, “Pyridazinyl-thiazolecarboxamide compound” (Astellas Pharma Inc., priority 2019, dated 2025).

Each molecule was assayed against human recombinant DGK ξ (Homo sapiens (Human), UniProt Q13574) (assay: Evaluation of DGK ξ inhibitory effect (ADP-Glo Kinase Assay)).
Type: biochemical
Experimental: Test Example 1: Evaluation of DGK ξ Inhibitory Effect
The inhibitory effect of a test compound on human recombinant DGK ξ (Carna Biosciences, Inc., 12-410-20N) was examined by the following method in which detection is performed with ADP-Glo™ Kinase Assay (Promega Corporation).
To a 384-well plate (Greiner Bio-One Co., Ltd.), 3 μL of a […] dissolved in an assay buffer (40 mM Tris-HCl pH 7.5, 10 mM MgCl2, 1 mM dithiothreitol (DTT) and 0.1 mg/mL bovine serum albumin (BSA)) (90 ng/mL) was added, and 3 μL of the test compound diluted with the same assay buffer was added so that an intended final concentration was obtained. The mixture was left standing at room temperature for 15 minutes, 3 μL of a substrate (150 μM 1-oleoyl-2-acetyl-sn-glycerol (Sigma-Aldrich Co. LLC.), 480 μM phosphatidylserine (Avanti Polar Lipids, Inc.) and 150 μM UltraPure-ATP (attached to ADP-Glo)) was then added, and the mixture was left standing at room temperature for 30 minutes to react. Thereafter, 3 μL of an ADP-Glo Reagent was added, and the mixture was left standing at room temperature for 40 minutes to stop the enzyme reaction. Further, 6 μL of a Kinase-Detection Reagent was added, the mixture was left standing at room temperature for 30 minutes, and the luminescence was then measured using ARVO X3 (PerkinElmer, Inc.). The half maximal inhibitory concentration (IC50) was calculated by Sigmoid-Emax model non-linear regression analysis, where the signal value in solvent treatment was set to 0% inhibition and the signal value without addition of the DGK ξ enzyme was set to 100% inhibition. […] In the table, Ex represents the number of each Example described below. Also, in the table, compound C (cpd. C) represents the test compound of the Example 199 described in the international publication WO 2008/054702.

Sequence of human recombinant DGK ξ (Q13574 whole entry): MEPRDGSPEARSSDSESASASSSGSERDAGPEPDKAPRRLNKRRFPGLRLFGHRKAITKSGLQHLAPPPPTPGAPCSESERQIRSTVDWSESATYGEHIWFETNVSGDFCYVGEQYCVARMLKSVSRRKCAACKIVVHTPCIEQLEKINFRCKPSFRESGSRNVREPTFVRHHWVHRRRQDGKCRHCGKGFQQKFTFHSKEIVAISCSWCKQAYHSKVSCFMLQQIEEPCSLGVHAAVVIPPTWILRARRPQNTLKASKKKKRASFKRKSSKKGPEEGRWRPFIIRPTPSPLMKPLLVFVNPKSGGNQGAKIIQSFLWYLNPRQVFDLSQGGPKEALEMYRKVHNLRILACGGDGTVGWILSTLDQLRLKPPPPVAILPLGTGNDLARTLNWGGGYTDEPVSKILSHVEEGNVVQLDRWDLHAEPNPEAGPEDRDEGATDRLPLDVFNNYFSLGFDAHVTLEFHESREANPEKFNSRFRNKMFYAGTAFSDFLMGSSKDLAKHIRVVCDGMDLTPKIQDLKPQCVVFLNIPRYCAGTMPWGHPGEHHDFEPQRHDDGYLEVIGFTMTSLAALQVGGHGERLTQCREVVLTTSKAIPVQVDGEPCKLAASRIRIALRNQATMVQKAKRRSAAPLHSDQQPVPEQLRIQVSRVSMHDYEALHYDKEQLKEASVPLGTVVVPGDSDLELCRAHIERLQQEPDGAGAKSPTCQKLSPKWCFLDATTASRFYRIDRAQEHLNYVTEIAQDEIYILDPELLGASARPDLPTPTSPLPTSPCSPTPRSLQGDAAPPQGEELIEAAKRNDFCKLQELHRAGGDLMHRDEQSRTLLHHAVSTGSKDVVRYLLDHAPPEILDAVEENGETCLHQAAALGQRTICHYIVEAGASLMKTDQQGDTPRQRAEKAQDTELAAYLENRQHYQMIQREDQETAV

| IC50 [nM] | SMILES |
| --- | --- |
| 3 | CN1CCC2(CC1)CN(c1c(NC(=O)c3csc(-c4ccnnc4)n3)ccc(Oc3ccccc3)c1C(F)(F)F)CCO2 [Example 1, N-[2-(9-methyl-1-oxa-4,9-diazaspiro[5.5]undecan-4-yl)-4-phenoxy-3-(trifluoromethyl)phenyl]-2-(pyridazin-4-yl)-1,3-thiazole-4-carboxamide] |
| 53 | O=C(Nc1ccc(Oc2ccccc2)c(C(F)(F)F)c1C1=CCN(Cc2cc[nH]n2)CC1)c1csc(-c2ccnnc2)n1 [Example 2] |
| 20 | O=C(Nc1ccc(OC2CC2)c(C(F)(F)F)c1C1=CCN(Cc2cc[nH]n2)CC1)c1csc(-c2ccnnc2)n1 [Example 3] |
| 50 | O=C(Nc1ccc(OC2CCC2)c(F)c1C1=CCN(Cc2cc[nH]n2)CC1)c1csc(-c2ccnnc2)n1 [Example 4] |
| 48 | O=C(Nc1cc(F)c(OC2CC2)c(F)c1C1=CCN(Cc2cc[nH]n2)CC1)c1csc(-c2ccnnc2)n1 [Example 5] |
| 3 | CNC[C@H]1CN(c2c(NC(=O)c3csc(-c4ccnnc4)n3)ccc(Oc3ccccc3)c2C(F)(F)F)CCN1C [Example 6, N-[2-{(3S)-4-methyl-3-[(methylamino)methyl]piperazin-1-yl}-4-phenoxy-3-(trifluoromethyl)phenyl]-2-(pyridazin-4-yl)-1,3-thiazole-4-carboxamide] |
| 110 | NCC[C@@H]1CCCN(c2c(NC(=O)c3csc(-c4ccnnc4)n3)ccc(Oc3ccccc3)c2C(F)(F)F)C1 [Example 7] |
| 9 | CN1CCN(c2c(NC(=O)c3csc(-c4ccnnc4)n3)ccc(Oc3ccccc3)c2C(F)(F)F)C[C@@H]1CN [Example 8] |
| 17 | O=C(Nc1ccc(Oc2ccccc2)c(C(F)(F)F)c1N1CCOC2(CCNCC2)C1)c1csc(-c2ccnnc2)n1 [Example 12] |
| 13 | NC[C@@H]1CCCN(c2c(NC(=O)c3csc(-c4ccnnc4)n3)ccc(OC3CC3)c2C(F)(F)F)C1 [Example 13] |
| 13 | NC[C@@H]1CCCN(c2c(NC(=O)c3csc(-c4ccnnc4)n3)ccc(OC3CCC3)c2C(F)(F)F)C1 [Example 14] |
| 7 | NC[C@@H]1CCCN(c2c(NC(=O)c3csc(-c4ccnnc4)n3)ccc(OC3CCCC3)c2C(F)(F)F)C1 [Example 15] |
| 41 | Cn1cc(Oc2ccc(NC(=O)c3csc(-c4ccnnc4)n3)c(N3CCC[C@@H](CN)C3)c2C(F)(F)F)cn1 [Example 16] |
| 13 | Cn1ccc(Oc2ccc(NC(=O)c3csc(-c4ccnnc4)n3)c(N3CCC[C@@H](CN)C3)c2C(F)(F)F)n1 [Example 17] |
| 19 | NC[C@@H]1CCCN(c2c(NC(=O)c3csc(-c4ccnnc4)n3)ccc(Nc3ccccc3)c2C(F)(F)F)C1 [Example 18] |
| 15 | NC[C@H]1CCCN1c1c(NC(=O)c2csc(-c3ccnnc3)n2)ccc(Oc2ccccc2F)c1C(F)(F)F [Example 19] |
| 44 | CNC[C@H]1CCCN1c1c(NC(=O)c2csc(-c3ccnnc3)n2)ccc(Oc2ccccc2F)c1C(F)(F)F [Example 20] |
| 6 | Cc1ccccc1Oc1ccc(NC(=O)c2csc(-c3ccnnc3)n2)c(N2CCC[C@@H](CN)C2)c1C(F)(F)F [Example 21] |
| 5 | NC[C@@H]1CCCN(c2c(NC(=O)c3csc(-c4ccnnc4)n3)ccc(Oc3c(F)cccc3F)c2C(F)(F)F)C1 [Example 22] |
| 10 | NC[C@@H]1CCCN(c2c(NC(=O)c3csc(-c4ccnnc4)n3)ccc(Oc3c(F)cc(F)cc3F)c2C(F)(F)F)C1 [Example 23] |
| 11 | NC[C@@H]1CCCN(c2c(NC(=O)c3csc(-c4ccnnc4)n3)cc(F)c(Oc3ccccc3)c2F)C1 [Example 24] |
| 42 | NC[C@@H]1CN(c2c(NC(=O)c3csc(-c4ccnnc4)n3)ccc(Oc3ccccc3)c2C(F)(F)F)CCO1 [Example 25] |
| 46 | CNC[C@@H]1CN(c2c(NC(=O)c3csc(-c4ccnnc4)n3)ccc(Oc3ccccc3)c2C(F)(F)F)CCO1 [Example 26] |
| 90 | NC[C@H]1CN(c2c(NC(=O)c3csc(-c4ccnnc4)n3)ccc(Oc3ccccc3)c2C(F)(F)F)CCO1 [Example 27] |
